{
  "source": "patent US20230355542A1",
  "about": "“DRUG-ELUTING DEVICE WITH GENETIC AND CHEMICAL THERAPEUTICS FOR TREATING OR PREVENTING VASCULAR ACCESS DYSFUNCTIONS” (priority 2022, published 2023)",
  "test_system": "neointima formation in the venous arms of AV fistulae",
  "assay": "systemic E2 in AV fistula model with experimentally induced chronic kidney disease",
  "format": "in vivo",
  "conditions": "systemic E2 100 ug/day, i.p; animals with experimentally induced CKD",
  "description": "Systemic administration of estradiol, i.e., E2 (Molecular Weight: 272.38 Formula: […] Dissolves in absolute Ethanol) requires weekly therapeutic injections ([Study 1:10 weeks old+OVX (ovariectomy)+1 week+NX (nephrectomy)+4 weeks+AVF+4 weeks (with systemic E2 [100 ug/day, i.p])+4 weeks]) that are not applicable in real-life clinical settings. […] The nanoparticle membrane disclosed herein may locally deliver nanoparticles for the carotid artery ligation model and potentially for the AV Fistula injury site, replacing weekly injections, without the requirement for elevated systemic levels of E2. Nanoparticles may be successfully delivered and retained in layers of carotid artery tissue on a mouse model with significant enhancement.",
  "data": [
    {"smiles": "C[C@]12CC[C@@H]3c4ccc(O)cc4CC[C@H]3[C@@H]1CC[C@@H]2O", "note": "[estrogen, estradiol]", "values": [
      {"measurement": "effect on neointima formation", "result": "inhibits neointima formation"}
    ]}
  ]
}
